Results taken from article PMC11251039, “Harnessing cholesterol uptake of malaria parasites for therapeutic applications” (EMBO Molecular Medicine, 2024).
Several values for one entry are separate records, joined by “and”; a condition that tells them apart may be missing. Equal entries are not always repeated. Where two headings read alike, the source gives them in different places.

Tests used:
[1] = tested on: human foreskin fibroblasts (HFF); assay: Human foreskin fibroblast growth inhibition assay (SYBR Safe); type: cell-based; conditions: 72 h
Method: HFF cell growth inhibition assays commenced by adding 5000 cells to each well of a 96-well plate. 10 µg/mL cycloheximide was used as a no-growth control. DNA replication (indicating growth) was measured at the specified time using SYBR Safe DNA Gel Stain (Invitrogen 33102) and a fluorescence microplate reader. […]
Human Foreskin Fibroblast Growth Inhibition Assays:
The HFF cell line was maintained under routine culture conditions in DMEM containing 3.7 g/L NaHCO3 supplemented with 10% v/v newborn calf serum (NCS), 50 units/mL penicillin, 50 μg/mL streptomycin, 10 μg/mL gentamicin, 0.25 μg/mL amphotericin B, and 0.2 mM L-glutamine at 37 °C in a humidified 5% CO2 incubator. […]
HFF cells were detached from a flask using 0.25% Trypsin with 0.2 g/L EDTA (Sigma T4049) and washed with culture media. Cells were incubated with a serial dilution of each compound, or media/DMSO alone. Cycloheximide at 10 µg/mL was used as a positive control to determine background fluorescence. Approximately 5 000 cells were seeded in each well. Plates were incubated at 37 °C for 72 hours (until reaching confluency) and the media was removed. Plates were transferred to a -18 °C freezer. Plates were thawed and SYBR Safe DNA Gel Stain (final concentration 1/10,000) diluted in lysis buffer (as above) was added. Fluorescence was read at 490 nm excitation/ 520 nm emission on a FLUOstar Optima fluorescence plate reader. […]

[2] = tested on: asexual P. falciparum 3D7 wild-type parasites; assay: P. falciparum asexual growth inhibition assay (SYBR Safe DNA replication); type: cell-based, Plasmodium falciparum; conditions: for P. falciparum asexual growth, percentage of control: replicate values, source data Fig. 2B, listed as BC5B; for IC90 / IC50: Plasmodium falciparum; for IC50: read-out: IC50, P. falciparum asexual growth inhibition
Procedure, shortened: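 Sorbitol-synchronised ring-stage cultures at 1% parasitaemia and 1% haematocrit were exposed to 2-fold compound dilutions at 37 °C under microaerophilic conditions for 24, 48 or 72 h. Growth was read by SYBR Safe fluorescence of freeze-thaw lysates, with 200 nM chloroquine or artesunate defining background.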

[3] = tested on: P. berghei liver stage parasites; assay: P. berghei liver stage parasite size and number (fluorescence microscopy, coverslips); type: cell-based, Plasmodium berghei; conditions: 48 h
Method: Uninfected wells served as a control for background luminescence. […] No other manipulations were performed.
Appendix Fraser/Curtis et al.
For measurement of parasite size and number, 20,000 Huh7 cells were seeded onto collagen-coated coverslips on the day prior to infection. As above, 10,000 – 20,000 sporozoites were added per slide, allowed to invade for 60 minutes after centrifugation, and then incubated for […]
Infected cells were fixed with 3% paraformaldehyde in PBS, permeabilized with 0.3% v/v Triton X-100, and labelled with 1:1,000 polyclonal chicken anti-GFP (Abcam ab13970), 1:2,000 goat anti-chicken Alexa […]
intrinsic GFP fluorescence could be detected, as well as Fluoromount-G® containing 4′,6-diamidino-2-phenylindole (DAPI; Southern Biotech), to stain parasite and host cell nuclei.
Images were collected on a Zeiss Axio Observer Z2 microscope with a Zeiss AxioCam MRm at 200× or 400× (for quantification) or 630× (for cell images) magnification, with a resolution of […], 163 nm or 102 nm per pixel respectively. Alexa Fluor™ 546 fluorescence was detected at 546/13 nm excitation and 675/35 nm emission. […]
fluorescence was detected at 470/20 nm excitation and 525/25 nm emission. DAPI fluorescence (nucleic acid) was detected at 359/24 nm ex and 445/25 nm em. For quantification, all cells on each coverslip were imaged under the same settings for each experiment. P. berghei liver stage size was measured as described (24) using Fiji ImageJ (25). Liver-stage parasites were identified and delineated in fluorescent images using defined threshold levels, and the identified fluorescent areas were used to measure parasite area. The number of parasites on each coverslip was also counted. […]
manipulations were performed.

[4] = tested on: Toxoplasma gondii tachyzoites (RH strain); assay: Toxoplasma growth inhibition assay (tdTomato fluorescence, in HFF cells); type: cell-based; conditions: 72 h
Method: Fluorescence was measured daily with a fluorescence microplate reader for one week, and the background fluorescence from the time 0 reading was subtracted from all other measurements. […]
Toxoplasma Growth Inhibition Assays:
Growth inhibition was investigated as described previously (26). Fluorescent Toxoplasma gondii parasites were inoculated into an optical bottom 96-well plate containing confluent human foreskin fibroblast (HFF) host cells at a density of 2,000 parasites/well, with a serial dilution of each compound, or culture media/DMSO (0.1% v/v) alone. Plates were measured daily with a FluoStar Optima fluorescence plate reader at 540 nm excitation and 590 nm emission for one week, and the background fluorescence from the time 0 reading was subtracted from all other measurements. […]

Compound: COc1cc(NC(C)CCCNC(=O)CCC(=O)O[C@H]2CC[C@H]3[C@@H]4CC=C5C[C@@H](O)CC[C@]5(C)[C@H]4CC[C@]23C)c2ncccc2c1 (stereo partly shown) [C-17-PQ]
- Maximal inhibition of fibroblast growth at the range of concentrations tested ([1]; HFF): ≤ 30%
- IC50 ([1]; Homo sapiens, Fibroblast, read-out: IC50, human fibroblast growth inhibition): > 290 µM
- Fold lower IC50 than primaquine alone [2]: ~ 4 fold
- P. falciparum asexual growth, percentage of control ([2]; 0.154296880 uM, 24 h): 115.9% and 112.2% and 101.3% and 107.1% and 95.84% and 88.53% and 98.99% and 116.6% and 76.11%
- P. falciparum asexual growth, percentage of control ([2]; 0.308593750 uM, 24 h): 125.5% and 115.5% and 91.68% and 117.9% and 88.81% and 84.79% and 114.9% and 109.1% and 95.02%
- P. falciparum asexual growth, percentage of control ([2]; 0.617187500 uM, 24 h): 131.7% and 113.6% and 103% and 85.01% and 97.93% and 83.36% and 109% and 162.3% and 97.26%
- P. falciparum asexual growth, percentage of control ([2]; 1.234375000 uM, 24 h): 120.1% and 114.6% and 99.7% and 107.3% and 77.37% and 93.38% and 101.7% and 96.22% and 102.4%
- P. falciparum asexual growth, percentage of control ([2]; 2.468750000 uM, 24 h): 89.52% and 83.68% and 69.39% and 87.34% and 56.13% and 47.54% and 76.36% and 68.29% and 79.29%
- P. falciparum asexual growth, percentage of control ([2]; 4.937500000 uM, 24 h): 14.72% and 24.05% and 6.418% and 5.536% and -2.79% and -3.361% and 18.05% and 30.2% and 18.39%
- P. falciparum asexual growth, percentage of control ([2]; 9.875000000 uM, 24 h): 13.15% and 2.413% and -18.71% and -3.317% and -20.54% and -27.66% and -1.156% and -7.164% and -20.57%
- P. falciparum asexual growth, percentage of control ([2]; 19.750000000 uM, 24 h): -9.926% and -19.32% and -11.56% and 3.097% and -3.493% and -18.72% and 17.43% and -16.64% and -32.93%
- Fold difference in IC90 to primaquine ([2]; 24 h): ~ 8 fold
- Hill slope of inhibitory curve ([2]; 24 h): −4.56
- Hill slope of inhibitory curve ([2]; 72 h): −4.20
- IC90 ([2]; 3D7, 24 h): 5 µM
- IC50 ([2]; 3D7, 24 h, 24 h, starting at ring stages): 3.1 µM
- IC50 ([2]; 3D7, 48 h, 48 h): 3 µM
- IC90 ([2]; 3D7, 72 h): 4 µM
- IC50 ([2]; 3D7, 72 h, 72 h): 2.4 µM
- Reduction of parasite size (area) compared to untreated parasites ([3]; 0.3 µM): 48%
- Normalised mean size of liver stage parasites, percentage of the solvent control ([3]; 0.3 μM, per coverslip, source data Fig. 3C, listed as BC5B): 47.88% and 39.55% and 51.73% and 68.26% and 63.53% and 38.56%
- Reduction of parasite size (area) compared to untreated parasites ([3]; 3 µM): 90%
- Parasite number per coverslip compared to the same concentration of primaquine ([3]; 0.3 or 3 µM): significantly lower
- Fold difference in IC50 to primaquine ([4]; listed as steroid-primaquine conjugate): ~ 3.5 fold and 3 fold
- IC50 ([4]; Toxoplasma gondii, HFF, read-out: IC50, T. gondii tachyzoite growth inhibition): 2.8 µM
